Experimental data taken from patent US6914045B2, “Glycopeptide antibiotics” (Wyeth Holdings Corporation, priority 2001, dated 2005).
Numbered stars: 1 amine (or outer) side, 2 acyl side, 3 side chain; on linkers, the order of the positions; unused ones are H or OH. Square brackets hold non-standard residues; d marks the D form. Peptide text beside a SMILES is read from it. ξ: configuration not given here. X1 = N=C1NCC(C(O)C(N[*:1])C(=O)[*:2])N1C1OC(CO)C(O)C(O)C1O; ξEnduracididine(βξ-OH,4'ξ) = N=C1NCC(C(O)C(N)C(=O)O)N1; ξCha(3ξ-Me) = CC(C1CCCCC1)C(N)C(=O)O; Cha = N[CH](CC1CCCCC1)C(=O)O

Legend:
Assay in all cases: in vitro antibacterial evaluation, MIC by broth dilution
Type in all cases: cell-based
Settings in all cases: broth dilution, 18 hours at 35° C.
Enterococcus sp. = system: Enterococcus sp.
Description: (§1) Methods for in vitro Antibacterial Evaluation (Table 1)
(§2) The minimum inhibitory concentration (MIC), the lowest concentration of the antibiotic which inhibits growth of the test organism, is determined by the broth dilution method using Muller-Hinton II […] (Baltimore Biological Laboratories) following the recommendations of the National Committee for Clinical Laboratory Standards [Methods for dilution antimicrobial susceptibility tests for bacteria that grow aerobically, approved standard M7-A2, National Committee for Clinical Laboratory Standards, Villanova, Pa.].
(§3) An inoculum level of 5×10^5 CFU/mL, and a range of antibiotic concentrations (64-0.06 μg/mL) is used. […] The test organisms include a spectrum of Gram-positive bacteria comprised of Staphylococcus sp., Streptococcus sp. and Enterococcus sp. These organisms include recent clinical isolates that are resistant to methicillin, penicillin and/or vancomycin.

Staphylococcus sp. = system: Staphylococcus sp.
Description: as §1, §2, §3

Streptococcus sp. = system: Streptococcus sp.
Description: as §1, §2, §3

Escherichia coli = system: Escherichia coli
Method in brief: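 MIC is the lowest antibiotic concentration (tested 64-0.06 μg/mL) preventing growth of a 5×10^5 CFU/mL inoculum. Determined by broth dilution in Mueller-Hinton II medium following NCCLS standard M7-A2.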

CC(C1CCCCC1)C1NC(=O)CNC(=O)C(CO)NC(=O)C(C(O)C2CNC(=N)N2C2OC(CO)C(O)C(O)C2O)NC(=O)C(C(O)C2CNC(=N)N2)NC(=O)C(CC2CCCCC2)NC1=O (stereo not drawn) [Example 53, Cyclo[3-cyclohexylalanyl-3-(2-iminoimidazolidin-4-yl)seryl-3-(3-hexopyranosyl-2-iminoimidazolidin-4-yl)serylserylglycyl-3-cyclohexyl-2-aminobutanyl]] (cyclo(G[ξCha(3ξ-Me)][Cha][ξEnduracididine(βξ-OH,4'ξ)][X1]S); configuration not given here)
8 µg/mL: MIC Enterococcus faecalis (ATCC 29212) (Enterococcus sp.; Enterococcus faecalis (ATCC 29212)) | MIC Enterococcus faecalis (GC 4552) (Enterococcus sp.; Enterococcus faecalis (GC 4552)) | MIC Enterococcus faecium (GC 4556) (Enterococcus sp.; Enterococcus faecium (GC 4556)) | MIC Enterococcus faecalis (ATCC 29212) (Enterococcus sp.; strain ATCC 29212) | MIC Enterococcus faecalis (GC 2242) (Enterococcus sp.; strain GC 2242) | MIC Enterococcus faecalis (GC 2691) (Enterococcus sp.; strain GC 2691) | MIC Enterococcus faecalis (GC 3059) (Enterococcus sp.; strain GC 3059) | MIC Enterococcus faecalis (GC 4552) (Enterococcus sp.; strain GC 4552) | MIC Enterococcus faecium (GC 4556) (Enterococcus sp.; strain GC 4556)
128 µg/mL: MIC Escherichia coli (ATCC 25922) (Escherichia coli; strain ATCC 25922) | MIC Escherichia coli (GC 4559) (Escherichia coli; strain GC 4559)
16 µg/mL: MIC Enterococcus faecalis (GC 4554) (Enterococcus sp.; Enterococcus faecalis (GC 4554)) | MIC Enterococcus faecalis (GC 4554) (Enterococcus sp.; strain GC 4554)
2 µg/mL: MIC Enterococcus faecium (GC 2243) (Enterococcus sp.; Enterococcus faecium (GC 2243)) | MIC Enterococcus faecium (GC 4557) (Enterococcus sp.; Enterococcus faecium (GC 4557)) | MIC Enterococcus faecium (GC 2243) (Enterococcus sp.; strain GC 2243) | MIC Enterococcus faecium (GC 4557) (Enterococcus sp.; strain GC 4557) | MIC Staphylococcus aureus (ATCC 29213) (Staphylococcus sp.; strain ATCC 29213) | MIC Staphylococcus aureus (GC 3051) (Staphylococcus sp.; strain GC 3051) | MIC Staphylococcus aureus (GC 4542) (Staphylococcus sp.; strain GC 4542) | MIC Staphylococcus aureus-SMITH (GC 4543) (Staphylococcus sp.; strain GC 4543) | MIC Staphylococcus aureus (GC 4545) (Staphylococcus sp.; strain GC 4545) | MIC Coagulase Negative Staphylococcus (GC 4547) (Staphylococcus sp.; strain GC 4547) | MIC Coagulase Negative Staphylococcus (GC 4548) (Staphylococcus sp.; strain GC 4548) | MIC Coagulase Negative Staphylococcus (GC 4551) (Staphylococcus sp.; strain GC 4551)
4 µg/mL: MIC Enterococcus avium (GC 4558) (Enterococcus sp.; Enterococcus avium (GC 4558)) | MIC Enterococcus faecalis (GC 4553) (Enterococcus sp.; Enterococcus faecalis (GC 4553)) | MIC Enterococcus faecalis (GC 6189) (Enterococcus sp.; Enterococcus faecalis (GC 6189)) | MIC Enterococcus faecalis (GC 4553) (Enterococcus sp.; strain GC 4553) | MIC Enterococcus avium (GC 4558) (Enterococcus sp.; strain GC 4558) | MIC Enterococcus faecalis (GC 6189) (Enterococcus sp.; strain GC 6189) | MIC Staphylococcus aureus (GC 1131) (Staphylococcus sp.; strain GC 1131) | MIC Staphylococcus aureus (GC 3053) (Staphylococcus sp.; strain GC 3053) | MIC Staphylococcus aureus (GC 4541) (Staphylococcus sp.; strain GC 4541) | MIC Staphylococcus aureus (GC 4544) (Staphylococcus sp.; strain GC 4544) | MIC Streptococcus pneumoniae (GC 4565) (Streptococcus sp.; strain GC 4565) | MIC Escherichia coli (GC 4560) (Escherichia coli; strain GC 4560)
1 µg/mL: MIC Staphylococcus haemolyticus (GC 4546) (Staphylococcus sp.; strain GC 4546) | MIC Coagulase Negative Staphylococcus (GC 4549) (Staphylococcus sp.; strain GC 4549) | MIC Streptococcus pneumoniae (ATCC 6301) (Streptococcus sp.; strain ATCC 6301) | MIC Streptococcus pneumoniae (GC 1894) (Streptococcus sp.; strain GC 1894) | MIC Streptococcus pyogenes (GC 4563) (Streptococcus sp.; strain GC 4563) | MIC Streptococcus agalactiae (GC 4564) (Streptococcus sp.; strain GC 4564)
